The record followed here is ChEMBL document CHEMBL1201862, “PubChem BioAssay data set” (2004).

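Briefly, cells in 96-well plates were exposed to five compound concentrations for 48 h, and endpoints were estimated by linear interpolation. Here, GI50 denotes the concentration required for 50% inhibition of growth.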 The source made the active and inactive calls. No stated cut-off is given here; in the data, active = GI50 up to about 1.1 µM and inactive = higher.

Among the test systems are SK-MEL-28; SK-OV-3; A549; TK-10; NCI-H226; PC-3; CAKI-1; MDA-N; SNB-19; NCI-H460; UO-31; MCF7; RPMI-8226; MDA-MB-435; T47D; HL-60; NCI/ADR-RES; SR; OVCAR-3; CCRF-CEM.
Holding throughout (assay): growth of human tumour cells (NCI), 48 h

As to `CC1(C2(C)OC(=O)c3ccccc32)OC(=O)c2ccccc21` (configuration not stated), the GI50 in the assay with SK-MEL-28, in the assay on SK-OV-3, in the assay with A549, with TK-10, in the assay on NCI-H226 and with PC-3 was > 100 µM (inactive) in each case. For the same compound, the GI50 with CAKI-1, in the assay with MDA-N, in the assay on SNB-19, with NCI-H460, in the assay with UO-31 and with MCF7 was > 100 µM (inactive) each time. For the same compound, the GI50 in the assay with RPMI-8226, in the assay on MDA-MB-435, with T47D, with HL-60, with NCI/ADR-RES and with SR was > 100 µM (inactive) in each case. Also, in the assay on OVCAR-3, the GI50 was > 100 µM (inactive).

As to `Cn1ncc2c(Cl)ncnc21`, the GI50 with SK-MEL-28, in the assay on SK-OV-3, in the assay on A549, with TK-10, with NCI-H226 and with PC-3 was > 100 µM (inactive) each time. Besides, the GI50 with CAKI-1, in the assay with MDA-N, in the assay with SNB-19, with NCI-H460, with UO-31 and in the assay with MCF7 was > 100 µM (inactive) in each case. Further, the GI50 in the assay on RPMI-8226, in the assay on MDA-MB-435, in the assay with T47D, with HL-60, with NCI/ADR-RES and with SR was > 100 µM (inactive) in each case. In addition, in the assay on OVCAR-3, the GI50 was > 100 µM (inactive).

As for `CC1C(=O)N=C2C(=CN(Cc3ccccc3)c3ccccc32)C(=O)N1C` (configuration not stated), the GI50 in the assay on SK-MEL-28, in the assay on CCRF-CEM, in the assay on A549, in the assay on TK-10, with NCI-H226 and in the assay with PC-3 was > 100 µM (inactive) throughout. The GI50 with CAKI-1, in the assay with MDA-N, in the assay with SNB-19, in the assay on NCI-H460, in the assay with UO-31 and in the assay on MCF7 was > 100 µM (inactive) throughout. Moreover, the GI50 in the assay on RPMI-8226 is > 100 µM (inactive); in the assay with MDA-MB-435, > 100 µM (inactive); in the assay with T47D, > 100 µM (inactive); in the assay on NCI/ADR-RES, > 100 µM (inactive); with SR, 4.26 µM (inactive); in the assay on OVCAR-3 it was > 100 µM (inactive).

Take `C[N+](C)(CCNc1ccc(NCC[N+](C)(C)Cc2ccc([N+](=O)[O-])cc2)c2c1C(=O)c1ccccc1C2=O)Cc1ccc([N+](=O)[O-])cc1`: the GI50 in the assay on SK-OV-3, in the assay with CCRF-CEM, in the assay with A549, in the assay with TK-10, in the assay on NCI-H226 and in the assay on PC-3 was > 100 µM (inactive) in each case. Further, the GI50 in the assay on CAKI-1, in the assay on MDA-N, with SNB-19, in the assay with NCI-H460, in the assay with UO-31 and in the assay on MCF7 was > 100 µM (inactive) throughout. Also, the GI50 in the assay on MDA-MB-435, with T47D, with HL-60, with NCI/ADR-RES, in the assay on SR and with OVCAR-3 was > 100 µM (inactive) in each case.

In the case of `Cc1nc(SCC(=O)Nc2ccc(Cl)cc2)c2sc(=S)n(-c3ccccc3)c2n1`, the GI50 in the assay with SK-MEL-28, in the assay with SK-OV-3, with CCRF-CEM, with A549, in the assay with TK-10 and with NCI-H226 was > 10 µM (inactive) each time. The GI50 in the assay with PC-3, in the assay on CAKI-1, in the assay with MDA-N, in the assay on SNB-19, in the assay on NCI-H460 and in the assay with MCF7 was > 10 µM (inactive) in each case. Moreover, the GI50 in the assay on RPMI-8226 was > 10 µM (inactive); in the assay with MDA-MB-435, > 10 µM (inactive); in the assay on T47D it was > 10 µM (inactive); in the assay with HL-60 it was > 10 µM (inactive); in the assay with NCI/ADR-RES, > 10 µM (inactive); with SR, 6.28 µM (inactive). Further, in the assay with OVCAR-3, the GI50 is > 10 µM (inactive).

Regarding `NCC1OC(OC2C(N)CC(N)C(O)C2OC2OC(CO)C(O)C2O)C(N)C(O)C1O` (configuration not stated), the GI50 in the assay with SK-MEL-28 is > 100 µM (inactive); in the assay with SK-OV-3 it was > 50 µM (inactive); with CCRF-CEM it was > 100 µM (inactive); with A549, > 100 µM (inactive); in the assay with TK-10, > 50 µM (inactive); with NCI-H226 it was > 100 µM (inactive). Further, the GI50 with PC-3 was > 50 µM (inactive); with CAKI-1, > 100 µM (inactive); with MDA-N it was > 50 µM (inactive); with SNB-19 it was > 50 µM (inactive); with NCI-H460 it was > 50 µM (inactive); in the assay with UO-31, > 100 µM (inactive). Also, the GI50 is > 100 µM (inactive) in the assay with MCF7; > 100 µM (inactive) in the assay with MDA-MB-435; > 50 µM (inactive) in the assay on T47D; > 100 µM (inactive) in the assay with HL-60; > 100 µM (inactive) in the assay with NCI/ADR-RES; > 50 µM (inactive) in the assay with SR. Also, the GI50 with OVCAR-3 is > 100 µM (inactive).

Take `O=C(CCCCCCCCC(=O)NN1C(=O)/C(=C\c2ccc(O)c(O)c2)SC1c1ccc(Cl)cc1)NN1C(=O)/C(=C\c2ccc(O)c(O)c2)SC1c1ccc(Cl)cc1` (configuration not stated): the GI50 in the assay on SK-MEL-28 is > 54.7 µM (inactive); in the assay with SK-OV-3 it was 22.6 µM (inactive); in the assay on CCRF-CEM, < 0.01 µM (active); in the assay on A549, 21.3 µM (inactive); with TK-10 it was 25.8 µM (inactive); in the assay on NCI-H226 it was 59.3 µM (inactive). For the same compound, the GI50 is 20.6 µM (inactive) in the assay with PC-3; 9.12 µM (inactive) in the assay with CAKI-1; > 88.1 µM (inactive) in the assay with MDA-N; 16.9 µM (inactive) in the assay with SNB-19; 30.6 µM (inactive) with NCI-H460; 5.35 µM (inactive) in the assay on UO-31. For the same compound, the GI50 in the assay on MCF7 is 38.8 µM (inactive); in the assay with RPMI-8226 it was 2.72 µM (inactive); with MDA-MB-435, 66.8 µM (inactive); with T47D, 31.9 µM (inactive); in the assay with NCI/ADR-RES, 28.8 µM (inactive); with SR it was 2.08 µM (inactive). In the assay with OVCAR-3, the GI50 is 5.45 µM (inactive).

Consider `Cn1c2ccccc2c2cc(N3CCCC3)c3c(c21)C(=O)N(c1ccccc1)C3=O`, for which the GI50 in the assay with SK-MEL-28 was > 100 µM (inactive); in the assay on SK-OV-3, 58.9 µM (inactive); in the assay on CCRF-CEM, > 100 µM (inactive); in the assay with A549 it was > 100 µM (inactive); in the assay on TK-10 it was > 100 µM (inactive); in the assay with NCI-H226, 47 µM (inactive). Also, the GI50 in the assay with PC-3 was > 100 µM (inactive); in the assay with MDA-N it was > 100 µM (inactive); in the assay with SNB-19, > 100 µM (inactive); with NCI-H460, > 100 µM (inactive); with UO-31, > 100 µM (inactive); in the assay with MCF7, 24.3 µM (inactive). The GI50 is > 100 µM (inactive) with RPMI-8226; > 100 µM (inactive) in the assay with MDA-MB-435; 62.1 µM (inactive) in the assay on T47D; > 100 µM (inactive) with HL-60; > 100 µM (inactive) in the assay with NCI/ADR-RES; > 100 µM (inactive) in the assay with SR. Also, the GI50 in the assay with OVCAR-3 was > 100 µM (inactive).

Turning to `O=C(NCc1cccc(C(F)(F)F)c1)c1cc2sccc2nc1C(F)(F)F`, the GI50 with SK-MEL-28 was > 100 µM (inactive); in the assay with SK-OV-3 it was 81.5 µM (inactive); in the assay with CCRF-CEM it was > 100 µM (inactive); in the assay on A549, > 100 µM (inactive); with TK-10, 64 µM (inactive); with NCI-H226, 98.9 µM (inactive). Moreover, the GI50 in the assay on PC-3 is > 100 µM (inactive); in the assay with CAKI-1, 62.1 µM (inactive); in the assay on MDA-N, > 100 µM (inactive); with SNB-19, 34.6 µM (inactive); with UO-31, > 100 µM (inactive); in the assay with MCF7 it was > 100 µM (inactive). In addition, the GI50 was > 100 µM (inactive) in the assay with RPMI-8226; > 100 µM (inactive) with MDA-MB-435; > 100 µM (inactive) in the assay on T47D; > 100 µM (inactive) in the assay with NCI/ADR-RES; > 100 µM (inactive) in the assay with SR; 83.4 µM (inactive) in the assay with OVCAR-3.

Turning to `NNC(=O)CC(=O)Nc1ccccc1Cl`, the GI50 with SK-MEL-28, with SK-OV-3, in the assay on CCRF-CEM, in the assay with A549, in the assay with TK-10 and with PC-3 was > 100 µM (inactive) each time. The GI50 in the assay on CAKI-1, in the assay with MDA-N, with SNB-19, with NCI-H460, in the assay on UO-31 and in the assay with MCF7 was > 100 µM (inactive) in each case. The GI50 in the assay on RPMI-8226, with MDA-MB-435, in the assay with T47D, in the assay on HL-60, in the assay with NCI/ADR-RES and in the assay on SR was > 100 µM (inactive) each time. For the same compound, in the assay on OVCAR-3, the GI50 was > 100 µM (inactive).
